# Test results: article PMC12668310, “High‐Throughput Synthesis and Screening of a Cyanimide Library Identifies Selective Inhibitors of ISG15‐Specific Protease mUSP18” (Angewandte Chemie (International Ed. in English), 2025)
# Tests used:
# [1] = tested on: cellular ISGylation in EL4 cells; assay: ISGylation accumulation in mouse IFN-β-stimulated EL4 cells (anti-mISG15 western blot); format: cell-based; settings: 4 h treatment; for effect on cellular ISGylation: anti-mISG15 blot
# Description: Figure 6 Inhibition of murine USP18 activity in living cells. a) Gel‐based ABPP potency assessment using a Rho‐mISG15ct‐PA probe in HEK293T cells overexpressing Flag‐mUSP18. At 24 h following transfection, cells were incubated with DMSO or increasing concentrations of indicated inhibitors for 4 h, lysed, and treated with Rho‐mISG15ct‐PA probe. Top panel: fluorescence scan. Middle panel: anti‐Flag western blot. Bottom panel: anti‐GAPDH western blot confirms equal loading. b) Accumulation of ISGylation in mouse IFN‐β‐stimulated EL4 cells. At 24 h following mouse IFN‐β treatment, cells were incubated with DMSO or increasing concentrations of indicated inhibitors for 4 h, lysed, and treated with Rho‐mISG15ct‐PA probe. Top panel: anti‐mISG15 western blot. Middle panel: fluorescence scan. Bottom panel: anti‐β‐actin western blot confirms equal loading.
# Ultimately, we were interested in whether USP18 inhibitor treatment could result in a relevant phenotype in cells. USP18 is the major deISGylase to remove ISG15 from target proteins, and genetic inactivation of USP18 isopeptidase activity leads to enhanced ISGylation in vivo and in cells.^[ [26] ^] We therefore examined whether the USP18 inhibitors enhance cellular ISGylation. Accordingly, EL4 cells were stimulated with IFN‐β to induce the ISG15 machinery, prior to treatment with the inhibitors. After cell lysis and SDS‐PAGE, ISGylated proteins were stained by immunoblotting with an ISG15 antibody (Figure 6b, top panel). […] To confirm inhibition of endogenous USP18 in these experiments, samples were post‐lysis treated with Rho‐mISG15ct‐PA probe.
# Generation of ISGylation and in-cell inhibition assay
# Mouse EL4 cells were stimulated with 300 U/mL mouse IFN-β. At 24 hours following stimulation, cells were incubated with indicated compounds at the indicated final concentrations at 37 °C for 4 hours, then washed twice with PBS and harvested for further […]
# Activity-based probe labelling
# The in-cell inhibition of DUBs and mUSP18 was assessed using activity-based probe labelling assays. In brief, cell pellets were resuspended in HR buffer (50 mM Tris-HCl, 5 mM MgCl 2, 250 mM sucrose, 2 mM TCEP and a Protease inhibitor tablet (Roche), pH 7.4), and lysed by sonication (Bioruptor, Diagenode, high intensity for 10 minutes with an ON/OFF cycle of 30 seconds) at 4°C. 40 μg clarified cell lysate was incubated with Rhodamine-mISG15ct-propargylamide probe[1] (final concentration 1 μM) or Rhodamine-Ubiquitin-propargylamide probe[13] (final concentration 1 μM) at 37 °C for 30 min. Reactions were stopped by the addition of LDS (lithium dodecyl sulfate) sample buffer (Invitrogen Life Technologies, Carlsbad, CA, USA) containing 2.5% β-mercaptoethanol, followed by boiling for 7 minutes.
# SDS-PAGE, in-gel fluorescence scanning, and immunoblotting
# Samples were resolved on precast Bis-Tris NuPAGE Gels (Invitrogen, including 4-12%, and 10% for different samples) using MOPS buffer (Invitrogen Life Technologies, Carlsbad, CA, USA). For fluorescence scan, labeled enzymes were visualized by in-gel fluorescence using a Typhoon FLA 9500 imaging system (GE Healthcare Life Sciences) (Rhodamine channel for probe, Cy5 channel for protein marker).
# For immunoblotting, proteins were transferred to a nitrocellulose membrane (Protan BA85, 0.45 μm, GE Healthcare) at 300 mA for 3 hours. […]
# mUSP18 = target: T1, mUSP18 (Mus musculus, UniProt Q9WTV6); assay: kinact/KI determination (kobs plot); format: biochemical, murine
# T1 construct: (46-368); His-tag (N); made in house
# T1 sequence (Q9WTV6 46-368): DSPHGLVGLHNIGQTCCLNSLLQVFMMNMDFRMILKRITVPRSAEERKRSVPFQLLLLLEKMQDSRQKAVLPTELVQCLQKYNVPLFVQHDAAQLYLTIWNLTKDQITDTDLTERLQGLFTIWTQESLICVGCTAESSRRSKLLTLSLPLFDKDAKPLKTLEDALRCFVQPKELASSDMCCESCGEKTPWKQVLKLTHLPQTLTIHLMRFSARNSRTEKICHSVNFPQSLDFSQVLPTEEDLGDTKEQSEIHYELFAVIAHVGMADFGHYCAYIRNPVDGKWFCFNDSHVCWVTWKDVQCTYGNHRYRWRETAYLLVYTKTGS
# [2] = target: T2, human USP18/ISG15 interaction (Homo sapiens, UniProt Q9UMW8); assay: NanoBRET assay, hUSP18/ISG15 interaction in HEK293T cells
# T2 sequence (Q9UMW8 1-372): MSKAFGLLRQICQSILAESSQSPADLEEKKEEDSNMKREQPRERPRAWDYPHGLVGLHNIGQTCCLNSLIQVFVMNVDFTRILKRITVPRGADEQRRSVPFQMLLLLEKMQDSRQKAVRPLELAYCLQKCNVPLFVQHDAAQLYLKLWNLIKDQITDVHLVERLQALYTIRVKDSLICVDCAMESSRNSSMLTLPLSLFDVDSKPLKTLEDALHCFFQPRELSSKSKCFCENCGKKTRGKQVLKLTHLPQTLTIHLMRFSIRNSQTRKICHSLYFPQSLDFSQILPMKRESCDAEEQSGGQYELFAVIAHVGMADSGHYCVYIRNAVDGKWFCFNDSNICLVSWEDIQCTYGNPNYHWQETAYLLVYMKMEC
# Description: We tested whether our USP18 activity inhibitor could also affect USP18's nonenzymatic function using our recently developed NanoBRET assay to monitor the interactions of USP18 with STAT2 and ISG15.^[ [43] ^]
# normalised to the DMSO control and inhibition was assessed by fitting the data to a dose-
# Data are shown as mean ± SD from one biological replicate with
# three technical replicates.
# Transient NanoBRET assays were performed
# following the manufacturer’s instructions (Promega). Briefly, HEK293T cells were transfected
# with NanoLuc and HaloTag fusion vectors at 1:100 ratio (20 ng NanoLuc and 2 µg HaloTag
# plasmid). After approx. 20 h, cells were harvested, resuspended in phenol red–free Opti-MEM
# media supplemented with 4% FCS, and plated in white, flat-bottom, 96-well tissue culture
# Immediately before signal detection,
# NanoBRET Nano-Glo substrate (Promega) was added, and luminescence was recorded using
# nm (HaloTag acceptor). The corrected NanoBRET ratio (mBU) was calculated by dividing the
# acceptor signal by the donor signal and subtracting the background signal obtained from the
Compound,concentration of maximum accumulation of ISGylation [1] [µM],effect on cellular ISGylation [1],kinact/KI (mUSP18) [M⁻¹ s⁻¹],inhibition of hUSP18/ISG15 interaction [2]
Cc1cc(C(=O)N[C@H]2C[C@@H]3CN(C#N)C[C@@H]3C2)ccc1Br [BB07CA28],10,significantly elevated cellular ISGylation,,
Cc1cc(C(=O)N[C@H]2C[C@@H]3CN(C#N)C[C@@H]3C2)ccc1C(C)C [BB07CA902],10,significantly elevated cellular ISGylation,4650,did not observe any inhibition
